Laboratory results from BindingDB's records for PubMed 38701715 (Shaanxi University of Chinese Medicine).

Assay: Inhibition of ACAT2 (unknown origin)

IC50: 124 µM
Compound: COc1ccc([C@@H]2O[C@H](c3ccc(OC(C)C(O)c4ccc5c(c4)COC5)c(OC)c3)[C@H](C)[C@@H]2C)cc1OC (stereo partly specified)
